Measurements taken from patent US8753604B2, “Methods and compositions for synaphically-targeted treatment for cancer” (Sanford-Burnham Medical Research Institute, priority 2008, dated 2014).
Bridges are numbered along the chain shown (N, C = ends). Where no end group is shown, it is not given here. The star is where a group is joined. FITC = O=C1OC2(c3ccc(O)cc3Oc3cc(O)ccc32)c2ccc(NC(=S)*)cc21

Legend:
MDA-MB-435 cells = experiment: FACS analysis of FITC-peptide binding to siRNA-transfected MDA-MB-435 cells; format: cell-based, human; details: 10 μM FITC peptide, 1 h at 4° C.
Protocol: MDA-MB-435 cells were transiently transfected with gC1qR/p32-specific or control siRNAs. […] The amount of fluorescence in living cells was analyzed by FACS. Cells incubated in the absence of peptide served as FITC negative control. Compared to control siRNA transfected cells, down-regulation of gC1qR/p32 expression (in the presence of gC1qR/p32 siRNA) caused a shift in the peak of Lyp-1 fluorescence but not control peptide fluorescence.
Cultured cells were detached with cell enzyme-free dissociation buffer (Gibco/Invitrogen) and collected in PBS containing 1% BSA (PBSB). Single cells suspensions from tumors were obtained as indicated above. For FACS staining, 2.5×10^5 cells were resuspended in 100 μl of PBSB and incubated with polyclonal anti-full-length gC1qR/p32 or rabbit IgG (20 μg/ml) in PBSB for 30 min at 4° C. The cells were washed in PBSB and stained with goat anti rabbit Alexa 488 (2.5 μg/ml) for 30 min at 4° C. For FACS analysis of bound FITC-peptides, cultured cells were detached as above and incubated with 10 μM of FITC-peptides in 10% FCS/DMEM for 1 hour at 4° C. After washes with PBSB, the cells were resuspended in PBS containing 2 μg/ml of propidium iodide (PI, Molecular Probes/Invitrogen) to distinguish between live and dead cells, and 10,000 cells per sample were analyzed using a BD Biosciences FACSort.

PPC1 cells = experiment: Phage internalization assay in PPC1 cells; format: cell-based, human
Excerpt: Mice were maintained in accordance with institutional guidelines and the animal experiments were approved by the Animal Research Committees at University of California, Santa Barbara and San Francisco. transgenic tumor mice (Bardeesy and DePinho, (2002); Arbeit et al., Progressive squamous epithelial neoplasia in K14-human papillomavirus type 16 transgenic mice. J. Virol. 68, 4358-4368 (1994); Hanahan, Heritable formation of pancreatic β-cell tumors in transgenic mice expressing recombinant insulin/simian virus 40 oncogenes. Nature 315, 115-122 (1985)) and xenograft tumors generated by injecting BALB/c nude mice (Harlan Sprague Dawley, Indianapolis, Ind.) with 10^6 human cancer cells orthotopically, intracardiacly or into the brain and tibia were used. […] Phage homing studies in vivo and cell binding studies in vitro (Zhang et al., (2006)), immunofluorescence (Karmali et al. (2008)) and flow cytometry (Sugahara et al., Hyaluronan oligosaccharides induce CD44 cleavage and promote cell migration in CD44-expressing tumor cells. J. Biol. Chem. 278, 32259-32265 (2003)) were done as described. Whole body imaging was performed 3 hrs after injecting the Cy7-labelled micelles with the Odyssey Infrared Imaging System (LI-COR Biosciences, Lincoln, Nebr.). […] FAM-labeled peptides in tissues were quantified by measuring the fluorescence with Image J software. […]

tumors [1] = experiment: In vivo peptide and phage homing (iRGD); details: peptides 2 hrs, phage 15 min circulation
Protocol: (§1) The peptides were allowed to circulate for 2 hrs and organs were collected and viewed under UV light (left panel) or white light (right panel). […] Fluorescence in each tissue was quantified with Image J software. Statistical analysis was performed with Student's t-test. […] The circulation time for the free peptides was 2 hrs, 15 min for the peptide-displaying phage, and 3 hrs for the peptide-coupled micelles. […] Representative fields from multiple sections of each of three tumors are shown.
(§2) Synthetic peptides labeled with fluorescein (Karmali et al. (2008)) (approximately 200 μg) were intravenously injected into tumor-bearing mice and allowed to circulate for 15 min to 2 hrs. Tissues were collected and observed under UV light (Illumatool Bright Light System LT-9900) or processed for immunofluorescence (Karmali et al. (2008)). To assess phage homing (Zhang et al., (2006)), 10^9 pfu of T7 phage were intravenously injected into tumor-bearing mice, and allowed to circulate for 15 min. The mice were perfused through the heart with PBS containing 1% BSA and tissues were harvested for immunofluorescence.

tumors [2] = details: mouse, in vivo
Protocol: as §1, §2

mitochondrial membranes = details: concentration of 10 μM; cited from earlier work

## FITC-LyP-1: FITC conjugated LyP-1 peptide ({FITC}-CGNKRTRGC; disulfide 1-9 (inferred); not fully specified (C-terminus))
MDA-MB-435 cells
  FITC-peptide binding to cells after gC1qR/p32 siRNA versus control siRNA: reduction in the binding

## RGD-4C: RGD peptide (SEQ ID NO:41) with strong affinity for αv integrins (RGDCCCC; homing peptide)
PPC1 cells
  phage internalization within PPC1 cells: nor did they internalize
Tumors [1]
  distribution within tumor (confocal microscopy): accumulated only in and around tumor blood vessels

## N=C(N)NCCC[C@@H]1NC(=O)[C@@H](N)CSSC[C@@H](C(=O)O)NC(=O)[C@H](CC(=O)O)NC(=O)[C@@H]2CCCN2C(=O)CNC(=O)[C@H](CCCCN)NC(=O)[C@H](CC(=O)O)NC(=O)CNC1=O [iRGD]
Tumors [2]
  tumor homing over a control peptide: 12 fold

## D(KLAKLAK)2
Mitochondrial membranes
  mitochondrial swelling: marked mitochondrial swelling
